Source: PubChem BioAssay AID248 (DTP/NCI, 2004)
Values joined by “and” are separate entries in the source; they are usually repeats but may differ in a detail not shown here. Equal entries are not always repeated. Toxic doses and inconclusive results are not listed. Rule as the data show it: active = T/C of 150% or more; inactive = T/C below 125%.

Tested on: L1210 leukemia ip in BDF1 mice, survival T/C
Assay: NCI In Vivo Anticancer Drug Screen. Data for tumor model L1210 Leukemia (intraperitoneal) in B6D2F1 (BDF1) mice
Conditions: endpoint: mean survival time, higher = longer survival
In short: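 Survival endpoint. Drug-treated group vs vehicle group, expressed as T divided by C. Tumor passaged by transplantation.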

[1] = dose: 100.0 mg/kg/injection, schedule: Q01DX001 (ip), vehicle: saline with Tween-80
[2] = dose: 200.0 mg/kg/injection, schedule: Q01DX001 (ip), vehicle: saline with Tween-80
[3] = dose: 400.0 mg/kg/injection, schedule: Q01DX001 (ip), vehicle: saline with Tween-80
[4] = dose: 100.0 mg/kg/injection, schedule: Q04DX002 (ip), vehicle: saline with Tween-80
[5] = dose: 100.0 mg/kg/injection, schedule: Q04DX003 (ip), vehicle: saline with Tween-80
[6] = dose: 200.0 mg/kg/injection, schedule: Q04DX002 (ip), vehicle: saline with Tween-80
[7] = dose: 200.0 mg/kg/injection, schedule: Q04DX003 (ip), vehicle: saline with Tween-80
[8] = dose: 400.0 mg/kg/injection, schedule: Q01DX009 (ip), vehicle: saline with Tween-80
[9] = dose: 400.0 mg/kg/injection, schedule: Q04DX002 (ip), vehicle: saline with Tween-80
[10] = dose: 400.0 mg/kg/injection, schedule: Q04DX003 (ip), vehicle: saline with Tween-80
[11] = dose: 100.0 mg/kg/injection, schedule: Q04DX003 (ip), vehicle: Klucel (hydroxypropylcellulose) (HPC)
[12] = dose: 200.0 mg/kg/injection, schedule: Q04DX003 (ip), vehicle: Klucel (hydroxypropylcellulose) (HPC)
[13] = dose: 400.0 mg/kg/injection, schedule: Q04DX003 (ip), vehicle: Klucel (hydroxypropylcellulose) (HPC)

Measured: T/C

CC1C(C)(C)P(=O)(OCCOP2(=O)C(C)(C)C(C)C2(C)C)C1(C)C (stereo not drawn)
inactive: dose: 100.0 mg/kg/injection, schedule: Q04DX003 (ip), vehicle: saline 100 % of control | dose: 200.0 mg/kg/injection, schedule: Q04DX003 (ip), vehicle: saline 94 % of control

CC(=O)OC(COS(=O)(=O)c1ccc(C)cc1)C1OCOC(COS(=O)(=O)c2ccc(C)cc2)C1OC(C)=O (stereo not drawn)
inactive: [1] 92 % of control | [2] 93 % of control | [3] 95 % of control

O=C(CCc1ccccc1)NC(=S)Nc1ccc(I)cc1
inactive: dose: 12.5 mg/kg/injection, schedule: Q01DX009 (ip), vehicle: saline with Tween-80 94 % of control and 90 % of control | [1] 106 % of control | [4] 104 % of control | [5] 100 % of control | [2] 103 % of control | [6] 93 % of control and 101 % of control | [7] 97 % of control | [3] 91 % of control | [8] 95 % of control and 99 % of control | [9] 101 % of control and 90 % of control | [10] 96 % of control

CN1C(=O)c2ccccc2/C=C\c2ccccc21
inactive: dose: 100.0 mg/kg/injection, schedule: Q04DX002 (ip), vehicle: Klucel (hydroxypropylcellulose) (HPC) 103 % of control | dose: 200.0 mg/kg/injection, schedule: Q04DX002 (ip), vehicle: Klucel (hydroxypropylcellulose) (HPC) 92 % of control | dose: 400.0 mg/kg/injection, schedule: Q04DX002 (ip), vehicle: Klucel (hydroxypropylcellulose) (HPC) 87 % of control

COc1cc(C2=N/C(=C\C=C\c3ccccc3)C(=O)O2)cc(OC)c1OC
inactive: [4] 95 % of control | [6] 95 % of control | [9] 95 % of control

CCCCCCCCCOc1ccc2ccccc2c1
inactive: [5] 102 % of control | [7] 97 % of control | [10] 92 % of control

S=C(C#Cc1ccccc1)Nc1ccccc1
inactive: [4] 93 % of control | [6] 86 % of control

CC1(C)c2ccccc2C(O)(CCl)c2ccccc21
inactive: [11] 104 % of control | [12] 112 % of control | [13] 94 % of control

COc1ccc(C2c3cc(OC)c(OC)cc3CC3C(=O)OCC32)cc1OC (stereo not drawn)
inactive: [11] 98 % of control | [12] 93 % of control | [13] 93 % of control

Cc1ccc(NC(=O)Nc2c(C)n(C)n(-c3ccccc3)c2=O)c([N+](=O)[O-])c1
inactive: [11] 94 % of control | [12] 91 % of control | [13] 91 % of control

NC(=O)NCc1ccccc1
inactive: dose: 100.0 mg/kg/injection, schedule: Q01DX001 (ip), vehicle: saline 105 % of control | dose: 200.0 mg/kg/injection, schedule: Q01DX001 (ip), vehicle: saline 97 % of control | dose: 400.0 mg/kg/injection, schedule: Q01DX001 (ip), vehicle: saline 103 % of control

Cc1cc(N(C)C)cc(C)c1N=Nc1cc(Cl)ccc1Cl
inactive: [11] 94 % of control | [12] 96 % of control | [13] 87 % of control

OCC1OCCO1
inactive: dose: 100.0 mg/kg/injection, schedule: Q01DX009 (ip), vehicle: saline with Tween-80 96 % of control | [5] 110 % of control | dose: 200.0 mg/kg/injection, schedule: Q01DX009 (ip), vehicle: saline with Tween-80 93 % of control | [7] 102 % of control | [8] 96 % of control | [10] 100 % of control
